Consider 33 compounds from patent US20240335442A1 (Eurofarma Laboratórios S.A., priority 2021, published 2024).

Assay [1] deals with human sodium channel Nav 1.8 (Homo sapiens (Human), UniProt Q9Y5Y9). As to the kind of experiment: Automated whole-cell voltage-clamp (ScreenPatch 384P), Nav 1.8 sodium current, Protocol 2. The assay is classed as cell-based. Conditions: read-out: Nav1.8 IC50. Put shortly: (§1)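 CHO cells stably expressing human Nav1.7 or Nav1.8, automated whole-cell clamp, room temperature, ≥5 min exposure at eight concentrations. Protocol 1: hold −90 mV, 0.1 Hz, test pulse 0 mV (Nav1.7) or 10 mV (Nav1.8). Protocol 2: hold −100 mV with 8 s −40 mV inactivating step, 0.05 Hz. IC50 from Hill fit of TP1A peak-current block, normalized to vehicle and positive control.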
Chain of human sodium channel Nav 1.8 (Q9Y5Y9 whole entry): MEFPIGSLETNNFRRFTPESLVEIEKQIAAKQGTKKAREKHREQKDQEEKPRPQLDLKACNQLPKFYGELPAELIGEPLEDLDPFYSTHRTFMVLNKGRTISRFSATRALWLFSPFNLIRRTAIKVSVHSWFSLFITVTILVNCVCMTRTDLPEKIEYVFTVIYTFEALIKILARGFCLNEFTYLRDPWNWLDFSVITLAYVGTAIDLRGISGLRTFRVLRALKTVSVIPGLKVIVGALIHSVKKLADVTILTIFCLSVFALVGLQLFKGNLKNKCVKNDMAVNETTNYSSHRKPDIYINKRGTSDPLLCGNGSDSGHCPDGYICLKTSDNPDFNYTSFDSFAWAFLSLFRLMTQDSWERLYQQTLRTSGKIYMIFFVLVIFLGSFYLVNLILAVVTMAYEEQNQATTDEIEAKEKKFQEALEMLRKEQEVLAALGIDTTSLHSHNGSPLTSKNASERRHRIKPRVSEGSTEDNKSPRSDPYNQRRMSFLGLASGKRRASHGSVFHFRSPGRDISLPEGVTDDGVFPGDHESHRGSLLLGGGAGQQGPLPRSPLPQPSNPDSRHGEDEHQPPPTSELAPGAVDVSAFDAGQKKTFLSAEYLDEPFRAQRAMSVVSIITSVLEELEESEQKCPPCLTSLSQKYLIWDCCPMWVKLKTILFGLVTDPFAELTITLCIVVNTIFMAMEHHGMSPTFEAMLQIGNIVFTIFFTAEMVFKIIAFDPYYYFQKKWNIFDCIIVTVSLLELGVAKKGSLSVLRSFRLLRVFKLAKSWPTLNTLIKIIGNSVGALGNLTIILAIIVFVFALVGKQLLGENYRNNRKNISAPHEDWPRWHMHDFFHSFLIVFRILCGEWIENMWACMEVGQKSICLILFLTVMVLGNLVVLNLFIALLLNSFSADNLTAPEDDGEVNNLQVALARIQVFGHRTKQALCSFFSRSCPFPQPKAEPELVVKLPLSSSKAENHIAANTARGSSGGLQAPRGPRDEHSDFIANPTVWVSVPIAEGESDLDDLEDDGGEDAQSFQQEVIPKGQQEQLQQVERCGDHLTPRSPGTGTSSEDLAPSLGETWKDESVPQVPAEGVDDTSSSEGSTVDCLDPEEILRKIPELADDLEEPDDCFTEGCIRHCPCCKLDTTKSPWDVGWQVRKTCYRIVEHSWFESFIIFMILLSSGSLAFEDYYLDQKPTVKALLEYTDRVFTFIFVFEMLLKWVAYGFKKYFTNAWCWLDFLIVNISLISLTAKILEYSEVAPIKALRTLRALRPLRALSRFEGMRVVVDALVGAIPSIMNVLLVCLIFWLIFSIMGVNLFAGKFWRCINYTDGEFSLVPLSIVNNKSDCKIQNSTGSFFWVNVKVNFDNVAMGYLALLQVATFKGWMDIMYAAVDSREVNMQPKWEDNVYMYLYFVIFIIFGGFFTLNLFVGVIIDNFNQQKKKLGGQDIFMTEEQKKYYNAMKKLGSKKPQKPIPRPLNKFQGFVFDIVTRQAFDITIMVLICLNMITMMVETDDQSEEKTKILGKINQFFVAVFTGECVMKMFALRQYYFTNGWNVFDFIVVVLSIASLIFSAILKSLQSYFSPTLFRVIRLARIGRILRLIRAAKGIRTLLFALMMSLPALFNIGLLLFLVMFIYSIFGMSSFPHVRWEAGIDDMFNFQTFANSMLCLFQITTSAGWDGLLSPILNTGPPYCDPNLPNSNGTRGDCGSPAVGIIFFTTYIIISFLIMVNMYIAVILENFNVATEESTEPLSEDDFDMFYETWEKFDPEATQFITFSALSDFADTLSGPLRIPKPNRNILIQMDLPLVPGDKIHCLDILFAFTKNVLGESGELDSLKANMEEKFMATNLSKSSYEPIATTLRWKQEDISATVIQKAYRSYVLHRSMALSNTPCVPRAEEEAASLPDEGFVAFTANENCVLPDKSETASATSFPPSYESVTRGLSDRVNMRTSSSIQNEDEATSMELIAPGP

The target in assay [2] is human sodium channel Nav 1.7 (Homo sapiens (Human), UniProt Q15858). Nature of the assay: Automated whole-cell voltage-clamp (ScreenPatch 384P), Nav 1.7 sodium current, Protocol 2. Conditions: read-out: Nav1.7 IC50. The class given is cell-based. Put shortly:
as §1

Bounds are passed on as bounds.

Chain of human sodium channel Nav 1.7 (Q15858 whole entry): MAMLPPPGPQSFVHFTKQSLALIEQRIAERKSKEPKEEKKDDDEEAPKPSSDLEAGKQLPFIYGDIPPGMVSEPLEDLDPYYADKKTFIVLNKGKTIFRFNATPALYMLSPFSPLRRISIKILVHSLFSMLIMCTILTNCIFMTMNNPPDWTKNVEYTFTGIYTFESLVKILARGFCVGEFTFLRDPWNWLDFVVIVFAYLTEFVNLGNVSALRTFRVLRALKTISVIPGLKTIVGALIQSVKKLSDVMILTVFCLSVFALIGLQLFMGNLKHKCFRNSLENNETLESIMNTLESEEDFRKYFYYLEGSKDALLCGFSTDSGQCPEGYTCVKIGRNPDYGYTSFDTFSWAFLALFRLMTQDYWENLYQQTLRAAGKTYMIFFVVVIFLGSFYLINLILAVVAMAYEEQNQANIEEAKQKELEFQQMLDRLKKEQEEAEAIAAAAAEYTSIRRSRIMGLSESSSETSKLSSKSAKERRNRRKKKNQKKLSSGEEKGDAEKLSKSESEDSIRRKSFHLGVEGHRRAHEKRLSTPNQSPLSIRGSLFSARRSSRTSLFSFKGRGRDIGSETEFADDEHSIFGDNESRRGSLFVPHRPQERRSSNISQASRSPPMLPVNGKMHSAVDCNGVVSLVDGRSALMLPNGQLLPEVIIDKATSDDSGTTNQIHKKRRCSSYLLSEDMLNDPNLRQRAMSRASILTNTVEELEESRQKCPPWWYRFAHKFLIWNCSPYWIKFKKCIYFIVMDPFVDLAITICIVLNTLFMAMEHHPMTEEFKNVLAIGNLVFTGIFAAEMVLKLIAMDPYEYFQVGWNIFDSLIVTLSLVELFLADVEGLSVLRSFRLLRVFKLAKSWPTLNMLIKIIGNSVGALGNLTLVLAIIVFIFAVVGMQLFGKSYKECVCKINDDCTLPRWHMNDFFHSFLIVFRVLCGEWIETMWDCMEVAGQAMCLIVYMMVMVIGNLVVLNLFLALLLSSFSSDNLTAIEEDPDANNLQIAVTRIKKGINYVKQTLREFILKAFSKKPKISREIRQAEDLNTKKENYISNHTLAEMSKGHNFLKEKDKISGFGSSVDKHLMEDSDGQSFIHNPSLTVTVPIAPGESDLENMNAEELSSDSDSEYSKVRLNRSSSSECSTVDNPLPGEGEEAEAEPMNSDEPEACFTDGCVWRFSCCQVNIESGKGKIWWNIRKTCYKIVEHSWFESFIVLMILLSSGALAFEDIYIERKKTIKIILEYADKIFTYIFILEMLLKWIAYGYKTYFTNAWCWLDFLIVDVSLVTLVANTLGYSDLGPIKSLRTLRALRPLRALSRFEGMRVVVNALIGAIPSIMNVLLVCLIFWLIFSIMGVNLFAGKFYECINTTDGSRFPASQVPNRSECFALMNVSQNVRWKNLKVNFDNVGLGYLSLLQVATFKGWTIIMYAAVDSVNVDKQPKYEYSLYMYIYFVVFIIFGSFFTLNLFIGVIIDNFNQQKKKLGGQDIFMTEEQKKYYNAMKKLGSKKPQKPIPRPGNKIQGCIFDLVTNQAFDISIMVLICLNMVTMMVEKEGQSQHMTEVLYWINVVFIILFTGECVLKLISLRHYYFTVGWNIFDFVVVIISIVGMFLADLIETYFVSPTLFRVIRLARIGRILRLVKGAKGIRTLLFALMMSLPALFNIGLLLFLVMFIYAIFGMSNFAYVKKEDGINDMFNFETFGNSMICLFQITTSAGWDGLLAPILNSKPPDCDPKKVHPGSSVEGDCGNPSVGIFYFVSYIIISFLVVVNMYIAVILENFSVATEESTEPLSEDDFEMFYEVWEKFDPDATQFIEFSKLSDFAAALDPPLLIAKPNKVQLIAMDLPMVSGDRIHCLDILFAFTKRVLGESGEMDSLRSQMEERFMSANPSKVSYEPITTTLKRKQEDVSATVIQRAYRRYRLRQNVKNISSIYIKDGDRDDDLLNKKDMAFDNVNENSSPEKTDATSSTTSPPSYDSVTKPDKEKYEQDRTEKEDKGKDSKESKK

What is called IC50 is the concentration needed to halve the response being measured. For `COc1cc(/C=N/NC(=O)c2cnc(C)cn2)cc(OC)c1` [Compound 138, (E)-N′-(3,5-dimethoxybenzylidene)-5-methylpyrazine-2-carbohydrazide], the 50% inhibitory concentration (IC50) in assay [1] was over 1000 nM; in assay [2], over 10000 nM.
With `COc1cc(/C=N/NC(=O)c2nccnc2C)cc(OC)c1` [Compound 139, (E)-N′-(3,5-dimethoxybenzylidene)-3-methylpyrazine-2-carbohydrazide], the IC50 in assay [1] was over 1000 nM; in assay [2], over 10000 nM.
In the case of `COc1cc(/C=N/NC(=O)c2cncc(OC)n2)cc(OC)c1` [Compound 140, (E)-N′-(3,5-dimethoxybenzylidene)-6-methoxypyrazine-2-carbohydrazide], the half-maximal inhibitory concentration (IC50) in assay [1] was over 1000 nM; in assay [2], over 10000 nM.
The matching figures for `COc1cc(/C=N/NC(=O)c2nccnc2OC)cc(OC)c1` [Compound 141, (E)-N′-(3,5-dimethoxybenzylidene)-3-methoxypyrazine-2-carbohydrazide]: over 1000 nM and over 10000 nM.
The matching figures for `COc1cc(/C=N/NC(=O)c2cnc(OC)cn2)cc(OC)c1` [Compound 142, (E)-N′-(3,5-dimethoxybenzylidene)-5-methoxypyrazine-2-carbohydrazide]: over 1000 nM and over 10000 nM.
`CCOc1ccc(-c2cnc(C)c(C(=O)N/N=C/c3cc(OC)cc(OC)c3)n2)cc1` [Compound 143, (E)-N′-(3,5-dimethoxybenzylidene)-6-(4-ethoxyphenyl)-3-methylpyrazine-2-carbohydrazide]: the IC50 in assay [1] turned out to be 650 nM; in assay [2], 5150 nM.
For the compound `CCOc1ccc(-c2cnc(CC)c(C(=O)N/N=C/c3cc(OC)cc(OC)c3)n2)cc1` [Compound 144, (E)-N′-(3,5-dimethoxybenzylidene)-6-(4-ethoxyphenyl)-3-ethylpyrazine-2-carbohydrazide], the IC50 in assay [1] and in assay [2] was over 300 nM in each case.
As for `CCOc1ccc(-c2cnc(OC)c(C(=O)N/N=C/c3cc(OC)cc(OC)c3)n2)cc1` [Compound 145, (E)-N′-(3,5-dimethoxybenzylidene)-6-(4-ethoxyphenyl)-3-methoxypyrazine-2-carbohydrazide], the IC50 in assay [1] and in assay [2] was over 300 nM throughout.
Consider `CCOc1ccc(-c2cnc(Oc3ccccc3)c(C(=O)N/N=C/c3cc(OC)cc(OC)c3)n2)cc1` [Compound 146, (E)-N′-(3,5-dimethoxybenzylidene)-6-(4-ethoxyphenyl)-3-phenoxypyrazine-2-carbohydrazide], for which the half-maximal inhibitory concentration (IC50) in assay [1] and in assay [2] was over 300 nM throughout.
As to `CCOc1ccc(-c2cnc(-c3ccccc3)c(C(=O)N/N=C/c3cc(OC)cc(OC)c3)n2)cc1` [Compound 147, (E)-N′-(3,5-dimethoxybenzylidene)-6-(4-ethoxyphenyl)-3-phenylpyrazine-2-carbohydrazide], the IC50 in assay [1] and in assay [2] was over 300 nM throughout.
As for `COc1cc(/C=N/NC(=O)c2cncc(-c3ccc(OCSC)cc3)n2)cc(OC)c1` [Compound 149, (E)-N′-(3,5-dimethoxybenzylidene)-6-(4-((methylthio)methoxy)phenyl)pyrazine-2-carbohydrazide], the IC50 in assay [1] was determined as 60.9 nM; in assay [2], 123 nM.
For the compound `Cc1cc(C)cc(/C=N/NC(=O)c2cncc(-c3ccc(OC4CCCC4)cc3)n2)c1` [Compound 150, (E)-6-(4-(cyclopentyloxy)phenyl)-N′-(3,5-dimethylbenzylidene)pyrazine-2-carbohydrazide], the concentration for half-maximal inhibition (IC50) in assay [1] came out at 118 nM; in assay [2] it was 121 nM.
Regarding `COc1cc(/C=N/NC(=O)c2cncc(-c3ccc(OCCN(C)C)cc3)n2)cc(OC)c1` [Compound 151, (E)-N′-(3,5-dimethoxybenzylidene)-6-(4-(2-(dimethylamino)ethoxy)phenyl)pyrazine-2-carbohydrazide], the values for the IC50 in assay [1] and in assay [2] were over 1000 nM and over 10000 nM, respectively.
On to `COc1cc(/C=N/NC(=O)c2cncc(-c3ccc(OCC4CC4)cc3)n2)cc(OC)c1` [Compound 152, (E)-6-(4-(cyclopropylmethoxy)phenyl)-N′-(3,5-dimethoxybenzylidene)pyrazine-2-carbohydrazide], for which the IC50 was 88.4 nM in assay [1] and 138 nM in assay [2].
For the compound `CCOc1ccc(-c2cncc(C(=O)N/N=C/c3cccc(OC)c3)n2)c(OCC)c1` [Compound 153, (E)-6-(2,4-diethoxyphenyl)-N′-(3-methoxybenzylidene)pyrazine-2-carbohydrazide], the concentration for half-maximal inhibition (IC50) in assay [1] was 121 nM; in assay [2], 228 nM.
Regarding `CCOc1ccc(-c2cncc(C(=O)N/N=C/c3cccc(OC)c3)n2)c(OC(C)C)c1` [Compound 154, (E)-6-(4-ethoxy-2-isopropoxyphenyl)-N′-(3-methoxybenzylidene)pyrazine-2-carbohydrazide], the values for the half-maximal inhibitory concentration (IC50) in assay [1] and in assay [2] were over 1000 nM and 1390 nM, respectively.
Take `COc1cc(/C=N/NC(=O)c2cncc(-c3ccc(OC)cc3OC(C)C)n2)cc(OC)c1` [Compound 156, (E)-N′-(3,5-dimethoxybenzylidene)-6-(2-isopropxy-4-methoxyphenyl)pyrazine-2-carbohydrazide]: the results for the IC50 in assay [1] and in assay [2] were over 1000 nM and 4790 nM, respectively.
As to `COc1cc(/C=N/NC(=O)c2cncc(-c3ccc(OC4CCCC4)cc3Cl)n2)cc(OC)c1` [Compound 157, (E)-6-(2-chloro-4-(cyclopentyloxy)phenyl)-N′-(3,5-dimethoxybenzylidene)pyrazine-2-carbohydrazide], the IC50 in assay [1] stood at 456 nM; in assay [2], 180 nM.
`CCCCOc1ccc(-c2cncc(C(=O)N/N=C/c3cc(OC)cc(OC)c3)n2)c(Cl)c1` [Compound 158, (E)-6-(4-butoxy-2-chlorophenyl)-N′-(3,5-dimethoxybenzylidene)pyrazine-2-carbohydrazide]: the IC50 in assay [1] stood at 282 nM; in assay [2], 245 nM.
Regarding `COc1cc(/C=N/NC(=O)c2cncc(-c3ccc(OCC(C)C)cc3Cl)n2)cc(OC)c1` [Compound 159, (E)-6-(2-chloro-4-isobutoxyphenyl)-N′-(3,5-dimethoxybenzylidene)pyrazine-2-carbohydrazide], the IC50 in assay [1] turned out to be 293 nM; in assay [2], 217 nM.
For the compound `COc1cc(/C=N/NC(=O)c2cncc(-c3ccc(OC)cc3OCCN(C)C)n2)cc(OC)c1` [Compound 160, (E)-N′-(3,5-dimethoxybenzylidene)-6-(2-(2-(dimethylamino)ethoxy)-4-methoxyphenol)pyrazine-2-carbohydrazide], the half-inhibitory concentration (IC50) in assay [1] is over 1000 nM; in assay [2], over 10000 nM.
For `COc1cc(/C=N/NC(=O)c2cncc(-c3ccccc3OC3CCCC3)n2)cc(OC)c1` [Compound 161, (E)-6-(2-(cyclopentyloxy)phenyl)-N′-(3,5-dimethoxybenzylidene)pyrazine-2-carbohydrazide], the IC50 is over 1000 nM in assay [1] and over 10000 nM in assay [2].
Regarding `COc1cc(/C=N/NC(=O)c2cncc(Cl)n2)cc(OC)c1` [Compound 163, (E)-6-chloro-N′-(3,5-dimethoxybenzylidene)pyrazine-2-carbohydrazide], the IC50 is over 1000 nM in assay [1] and over 10000 nM in assay [2].
`COc1cc(/C=N/NC(=O)c2cnc(Cl)cn2)cc(OC)c1` [Compound 164, (E)-5-chloro-N′-(3,5-dimethoxybenzylidene)pyrazine-2-carbohydrazide]: the half-inhibitory concentration (IC50) in assay [1] was over 1000 nM; in assay [2], over 10000 nM.
Consider `COc1cc(/C=N/NC(=O)c2nccnc2Cl)cc(OC)c1` [Compound 165, (E)-3-chloro-N′-(3,5-dimethoxybenzylidene)pyrazine-2-carbohydrazide], for which the concentration for half-maximal inhibition (IC50) is over 1000 nM in assay [1] and over 10000 nM in assay [2].
Consider `CCc1cnc(C(=O)N/N=C/c2cc(OC)cc(OC)c2)cn1` [Compound 167, (E)-N′-(3,5-dimethoxybenzylidene)-5-ethylpyrazine-2-carbohydrazide], for which the results for the IC50 in assay [1] and in assay [2] were over 1000 nM and over 10000 nM, respectively.
For the compound `COc1ccc(-c2cncc(C(=O)N(C)/N=C/c3cc(OC)cc(OC)c3)n2)cc1` [Compound 168, (E)-N′-(3,5-dimethoxybenzylidene)-6-(4-methoxyphenyl)-N-methylpyrazine-2-carbohydrazide], the IC50 in assay [1] is over 1000 nM; in assay [2] it was over 10000 nM.
Take `COc1cc(/C=N/NC(=O)c2cncc(N3CCC(F)(F)C(C)C3)n2)cc(OC)c1` (stereo not drawn) [Compound 169, (E)-6-(4,4-difluoro-3-methylpiperidin-1-yl)-N′-(3,5-dimethoxybenzylidene)pyrazine-2-carbohydrazide]: the IC50 is over 1000 nM in assay [1] and over 10000 nM in assay [2].
For `CCOc1ccc(-c2cncc(C(=O)N/N=C/c3ccccc3)n2)cc1` [Compound 170, (E)-N′-benzylidene-6-(4-ethoxyphenyl)pyrazine-2-carbohydrazide] the same measures were over 1000 nM and over 10000 nM.
Consider `CCOc1ccc(-c2cncc(C(=O)N/N=C/C3CCCCC3)n2)cc1` [Compound 171, (E)-N′-(cyclohexylmethylene)-6-(4-ethoxyphenyl)pyrazine-2-carbohydrazide], for which the 50% inhibitory concentration (IC50) was over 1000 nM in assay [1] and over 10000 nM in assay [2].
Consider `CCOc1ccc(-c2cncc(C(=O)N/N=C/C3CCC(F)(F)CC3)n2)cc1` [Compound 172, (E)-N′-((4,4-diflurocyclohexyl)methylene)-6-(4-ethoxyphenyl)pyrazine-2-carbohydrazide], for which the IC50 was 573 nM in assay [1] and over 10000 nM in assay [2].
For `COc1ccc(-c2cncc(C(=O)N/N=C/C3CCCCC3)n2)cc1` [Compound 173, (E)-N′-(cyclohexylmethylene)-6-(4-methoxyphenyl)pyrazine-2-carbohydrazide], the half-inhibitory concentration (IC50) in assay [1] was 629 nM; in assay [2] it was over 10000 nM.
On to `CC(C)Oc1ccc(-c2cncc(C(=O)N/N=C/C3CCCCC3)n2)cc1` [Compound 175, (E)-N′-(cyclohexylmethylene)-6-(4-isopropoxyphenyl)pyrazine-2-carbohydrazide], for which the concentration for half-maximal inhibition (IC50) in assay [1] amounted to 361 nM; in assay [2] it was 110 nM.
